Kd and IC50 data for eight molecules are collected here from patent US9938261B2, “Heterocyclic compounds and methods of use thereof” (AMBIT BIOSCIENCES CORPORATION, priority 2011, dated 2018).

Structures can show the parent of a compound that is named as a salt. Where two headings read alike, the source gives them in different places.

Experiment [1] addresses T1, FLT3 (Homo sapiens, UniProt P36888).
T1 construct: made in house
T1 sequence (P36888 27-993): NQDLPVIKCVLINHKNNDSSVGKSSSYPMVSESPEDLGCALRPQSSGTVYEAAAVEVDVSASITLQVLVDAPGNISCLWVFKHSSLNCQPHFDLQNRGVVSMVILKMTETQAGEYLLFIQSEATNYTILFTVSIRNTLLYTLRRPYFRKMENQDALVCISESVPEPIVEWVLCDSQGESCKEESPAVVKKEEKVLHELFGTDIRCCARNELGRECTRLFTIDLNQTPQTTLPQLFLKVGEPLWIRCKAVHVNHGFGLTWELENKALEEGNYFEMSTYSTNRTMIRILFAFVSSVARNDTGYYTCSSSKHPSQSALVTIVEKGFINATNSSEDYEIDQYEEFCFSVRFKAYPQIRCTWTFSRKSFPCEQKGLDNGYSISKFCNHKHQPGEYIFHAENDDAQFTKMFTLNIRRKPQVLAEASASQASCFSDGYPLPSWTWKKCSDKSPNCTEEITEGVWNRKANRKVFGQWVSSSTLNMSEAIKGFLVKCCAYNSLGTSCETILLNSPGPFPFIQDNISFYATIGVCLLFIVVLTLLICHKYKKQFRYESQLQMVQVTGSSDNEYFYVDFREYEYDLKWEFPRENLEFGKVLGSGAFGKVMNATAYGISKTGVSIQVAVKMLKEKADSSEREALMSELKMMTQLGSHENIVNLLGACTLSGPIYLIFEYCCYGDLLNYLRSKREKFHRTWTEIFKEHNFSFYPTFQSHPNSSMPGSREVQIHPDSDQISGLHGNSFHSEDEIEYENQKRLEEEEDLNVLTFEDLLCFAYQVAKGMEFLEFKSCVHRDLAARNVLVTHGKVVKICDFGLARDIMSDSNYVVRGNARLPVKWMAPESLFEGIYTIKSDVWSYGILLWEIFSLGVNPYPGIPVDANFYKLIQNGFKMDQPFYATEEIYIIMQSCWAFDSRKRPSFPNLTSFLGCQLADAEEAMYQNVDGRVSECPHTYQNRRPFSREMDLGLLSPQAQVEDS
The experiment can be described thus: Competition binding assay, FLT3 Kd. In short, it runs like this:
(§1)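 Phage-fused or HEK-293/DNA-tagged kinase + ligand-coated streptavidin beads + compound, 1 h RT with shaking. Wash, elute with free ligand 30 min RT, qPCR of eluted kinase. Kd: 11-point 3-fold series.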

The target in experiment [2] is T2, KIT (Homo sapiens, UniProt P10721).
T2 construct: made in house
T2 sequence (P10721 26-976): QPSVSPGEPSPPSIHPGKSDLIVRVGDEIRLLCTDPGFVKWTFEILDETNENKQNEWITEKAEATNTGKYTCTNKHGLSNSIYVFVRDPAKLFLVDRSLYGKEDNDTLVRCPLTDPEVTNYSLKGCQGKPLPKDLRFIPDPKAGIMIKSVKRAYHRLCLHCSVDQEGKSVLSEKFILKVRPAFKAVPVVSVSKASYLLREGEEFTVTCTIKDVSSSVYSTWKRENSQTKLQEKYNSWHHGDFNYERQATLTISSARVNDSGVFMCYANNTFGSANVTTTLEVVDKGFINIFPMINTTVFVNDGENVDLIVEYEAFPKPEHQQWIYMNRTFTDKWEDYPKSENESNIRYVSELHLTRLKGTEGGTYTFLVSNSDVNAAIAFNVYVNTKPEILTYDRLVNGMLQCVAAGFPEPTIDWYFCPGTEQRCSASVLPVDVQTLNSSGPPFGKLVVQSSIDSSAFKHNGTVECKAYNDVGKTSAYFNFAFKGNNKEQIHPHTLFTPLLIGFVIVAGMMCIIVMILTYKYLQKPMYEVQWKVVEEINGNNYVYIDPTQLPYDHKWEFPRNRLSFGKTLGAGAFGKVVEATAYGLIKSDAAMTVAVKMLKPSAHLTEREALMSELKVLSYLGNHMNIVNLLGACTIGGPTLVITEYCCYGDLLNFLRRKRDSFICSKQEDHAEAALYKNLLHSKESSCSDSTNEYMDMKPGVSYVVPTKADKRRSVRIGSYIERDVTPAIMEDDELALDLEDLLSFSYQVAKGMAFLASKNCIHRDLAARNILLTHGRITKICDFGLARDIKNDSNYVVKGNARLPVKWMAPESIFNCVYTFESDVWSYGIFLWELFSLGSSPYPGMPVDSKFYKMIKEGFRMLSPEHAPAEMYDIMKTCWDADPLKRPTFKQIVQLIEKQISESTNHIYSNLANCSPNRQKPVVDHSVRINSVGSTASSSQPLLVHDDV
The experiment can be described thus: Competition binding assay, KIT Kd. In short, it runs like this:
as §1

In experiment [3] the target is T3, PDGFRβ (Homo sapiens, UniProt P09619).
T3 construct: made in house
T3 sequence (P09619 33-1106): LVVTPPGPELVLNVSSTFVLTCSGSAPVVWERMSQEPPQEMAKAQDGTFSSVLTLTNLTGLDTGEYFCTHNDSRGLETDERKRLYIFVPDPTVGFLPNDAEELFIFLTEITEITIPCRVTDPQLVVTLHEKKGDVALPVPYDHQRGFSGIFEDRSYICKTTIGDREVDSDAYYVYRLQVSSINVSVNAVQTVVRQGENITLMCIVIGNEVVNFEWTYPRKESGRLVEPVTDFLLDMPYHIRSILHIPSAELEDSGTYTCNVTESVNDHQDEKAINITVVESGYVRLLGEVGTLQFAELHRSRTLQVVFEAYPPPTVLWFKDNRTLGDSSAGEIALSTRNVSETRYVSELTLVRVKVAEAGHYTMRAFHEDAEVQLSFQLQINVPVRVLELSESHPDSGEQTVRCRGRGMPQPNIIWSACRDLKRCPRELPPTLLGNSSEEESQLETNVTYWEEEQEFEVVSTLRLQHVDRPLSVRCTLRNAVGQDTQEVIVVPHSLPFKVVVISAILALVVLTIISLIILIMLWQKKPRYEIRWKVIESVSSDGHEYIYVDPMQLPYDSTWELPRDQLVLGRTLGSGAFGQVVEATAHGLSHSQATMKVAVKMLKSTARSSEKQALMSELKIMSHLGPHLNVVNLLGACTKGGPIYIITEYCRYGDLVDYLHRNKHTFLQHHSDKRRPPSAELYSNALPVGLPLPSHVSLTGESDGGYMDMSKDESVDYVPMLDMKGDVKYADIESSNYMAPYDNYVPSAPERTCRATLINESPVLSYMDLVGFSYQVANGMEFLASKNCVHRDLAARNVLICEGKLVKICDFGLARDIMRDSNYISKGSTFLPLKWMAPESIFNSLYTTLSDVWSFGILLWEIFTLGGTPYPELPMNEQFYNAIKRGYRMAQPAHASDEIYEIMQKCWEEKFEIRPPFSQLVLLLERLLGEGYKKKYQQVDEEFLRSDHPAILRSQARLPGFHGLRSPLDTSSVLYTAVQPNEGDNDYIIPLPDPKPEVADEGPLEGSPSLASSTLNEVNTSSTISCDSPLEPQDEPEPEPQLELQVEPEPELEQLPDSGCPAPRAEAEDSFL
The experiment can be described thus: Competition binding assay, PDGFRβ Kd. The method in brief: as §1

The test system of experiment [4] is M-NFS-60 cells. In words: M-NFS-60 cell proliferation assay (Alamar Blue). The settings on record: Mus musculus, read-out: CSF1R M-NFS-60 CTB:IC50. The experiment is classed as cell-based, mouse. In short, it runs like this: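 Mouse M-NFS-60 cells growing on 20 ng/mL M-CSF in RPMI/10% FBS were exposed to compounds (9 half-log concentrations, 0.5% DMSO) for 72 h at 37 °C. Viability read by Alamar Blue fluorescence (ex 560/em 590 nm, 3 h). IC50 = 50% proliferation inhibition versus control, mean of duplicates.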
(In general: Alamar Blue is a resazurin reagent that responds to reducing activity.)

The target of experiment [5] is T4, CSF1R (Homo sapiens, UniProt P07333). In words: Competition binding assay, CSF1R Kd. Also noted: made in house. In short, it runs like this:
as §1

Experiment [6] addresses T4, CSF1R. In words: HEK293 CSF1R phosphorylation MSD assay. The settings on record: read-out: HEK293 pCSF1R M-CSF MSD:IC50. It counts as cell-based. The arrangement: expressed in transfected cells; host or cells: HEK293. In short, it runs like this: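 HEK293 cells expressing CSF1R-FKBP were pretreated 2 h at 37° C with 9 half-log concentrations of compound (0.5% DMSO final), then stimulated 5 min with 50 ng/mL human M-CSF. Lysates captured on biotin-FK506 plates; phosphotyrosine detected by MSD electrochemiluminescence. IC50 versus DMSO, averaged from duplicate plates.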

The mark [7] stands for this setting: 72 hours incubation, M-CSF 20 ng/mL.
Setting [8] is: 2 h compound, human M-CSF 50 ng/mL for 5 min.
[9] abbreviates: HEK293 cells, M-CSF stimulated CSF1R phosphorylation, MSD.

T4 sequence (P07333 20-972): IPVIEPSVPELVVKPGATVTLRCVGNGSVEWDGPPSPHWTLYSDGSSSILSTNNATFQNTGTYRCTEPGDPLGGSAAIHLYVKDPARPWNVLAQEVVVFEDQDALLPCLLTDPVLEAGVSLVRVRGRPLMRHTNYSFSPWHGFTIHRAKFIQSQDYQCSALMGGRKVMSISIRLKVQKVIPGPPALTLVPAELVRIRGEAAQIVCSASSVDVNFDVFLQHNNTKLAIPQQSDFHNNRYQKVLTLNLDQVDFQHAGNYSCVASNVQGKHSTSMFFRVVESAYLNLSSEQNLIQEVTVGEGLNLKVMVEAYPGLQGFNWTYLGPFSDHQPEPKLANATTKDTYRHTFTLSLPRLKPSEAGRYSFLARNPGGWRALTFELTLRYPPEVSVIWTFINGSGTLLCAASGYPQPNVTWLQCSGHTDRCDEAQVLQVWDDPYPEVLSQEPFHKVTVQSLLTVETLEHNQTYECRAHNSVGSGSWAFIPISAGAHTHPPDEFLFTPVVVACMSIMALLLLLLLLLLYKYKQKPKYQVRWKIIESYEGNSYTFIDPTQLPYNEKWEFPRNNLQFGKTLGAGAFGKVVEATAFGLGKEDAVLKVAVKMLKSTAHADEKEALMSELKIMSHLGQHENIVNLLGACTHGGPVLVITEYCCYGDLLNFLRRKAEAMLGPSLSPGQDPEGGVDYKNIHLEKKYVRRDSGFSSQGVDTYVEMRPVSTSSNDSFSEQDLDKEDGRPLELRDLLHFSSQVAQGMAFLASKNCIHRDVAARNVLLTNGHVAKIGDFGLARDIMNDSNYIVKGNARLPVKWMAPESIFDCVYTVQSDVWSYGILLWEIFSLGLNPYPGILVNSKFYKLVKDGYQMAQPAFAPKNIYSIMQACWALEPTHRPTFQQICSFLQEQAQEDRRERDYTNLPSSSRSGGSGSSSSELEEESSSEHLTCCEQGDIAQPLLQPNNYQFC

The term Kd denotes a measure of binding affinity in units of concentration. Low readings indicate tighter binding, high ones weaker binding. The term IC50 denotes the concentration at which inhibition is half-maximal. On to `NCc1cnc2c(c1)ncn2Cc1ccc2nc(N[C@@H]3CCCC[C@H]3O)sc2c1` [Example 91, (1R,2R)-2-((6-((6-(aminomethyl)-3H-imidazo[4,5-b]pyridin-3-yl)methyl)benzo[d]thiazol-2-yl)amino)cyclohexanol acetate], for which the dissociation constant (Kd) in experiment [1] is ≤ 200 nM; in experiment [2], 100 to 500 nM; in experiment [3], 50 to 500 nM; in experiment [5], > 50 nM. Also, the IC50 in experiment [4] (setting [7]) is 50 to 400 nM; in experiment [6] (setting [8]), > 500 nM.

As for `CN(C)C(=O)c1cnc2c(c1)ncn2Cc1ccc2nc(N[C@@H]3CCCC[C@H]3O)sc2c1` [Example 92, 3-((2-(((1R,2R)-2-hydroxycyclohexyl)amino)benzo[d]thiazol-6-yl)methyl)-N,N-dimethyl-3H-imidazo[4,5-b]pyridine-6-carboxamide], the dissociation constant (Kd) in experiment [1] is 1000 to 5000 nM; in experiment [2], ≤ 100 nM; in experiment [3] it was ≤ 50 nM; in experiment [5] it was 5 to 20 nM. The results for the IC50 in experiment [4] (setting [7]) and in experiment [6] (setting [8]) were 50 to 400 nM and 50 to 200 nM, respectively.

Consider `O[C@@H]1CCCC[C@H]1Nc1nc2ccc(Cn3cnc4cc(-c5nn[nH]n5)cnc43)cc2s1` [Example 93, (1R,2R)-2-((6-((6-(2H-tetrazol-5-yl)-3H-imidazo[4,5-b]pyridin-3-yl)methyl)benzo[d]thiazol-2-yl)amino)cyclohexanol], for which the dissociation constant (Kd) in experiment [1] is 200 to 1000 nM; in experiment [2], ≤ 100 nM; in experiment [3], ≤ 50 nM; in experiment [5], 5 to 20 nM. Further, the IC50 in experiment [4] (setting [7]) was > 1500 nM; in experiment [6] (setting [8]), > 500 nM.

With `Cn1nnc(-c2cnc3c(c2)ncn3Cc2ccc3nc(N[C@@H]4CCCC[C@H]4O)sc3c2)n1` [Example 94, (1R,2R)-2-((6-((6-(2-methyl-2H-tetrazol-5-yl)-3H-imidazo[4,5-b]pyridin-3-yl)methyl)benzo[d]thiazol-2-yl)amino)cyclohexanol], the Kd lay within 200 to 1000 nM in experiment [1], 100 to 500 nM in experiment [2], 50 to 500 nM in experiment [3] and 5 to 20 nM in experiment [5]. The IC50 in experiment [4] (setting [7]) and in experiment [6] (setting [8]) was ≤ 50 nM in each case.

Take `O[C@@H]1Cc2ccccc2[C@H]1Nc1nc2ccc(Cn3cnc4cncnc43)cc2s1` [Example 95, (1R,2R)-1-((6-((9H-purin-9-yl)methyl)benzo[d]thiazol-2-yl)amino)-2,3-dihydro-1H-inden-2-ol]: the equilibrium dissociation constant (Kd) in experiment [1] is > 5000 nM; in experiment [2], 500 to 2000 nM; in experiment [3], ≤ 50 nM; in experiment [5], ≤ 5 nM. The IC50 was in the range of 50 to 400 nM in experiment [4] (setting [7]) and 50 to 200 nM in experiment [6] (setting [8]).

With `Cn1cc(-c2nccn(Cc3ccc4nc(N[C@@H]5CCCC[C@H]5O)sc4c3)c2=O)cn1` [Example 103, 1-((2-(((1R,2R)-2-hydroxycyclohexyl)amino)benzo[d]thiazol-6-yl)methyl)-3-(1-methyl-1H-pyrazol-4-yl)pyrazin-2(1H)-one], the Kd in experiment [1] is > 5000 nM; in experiment [2], > 2000 nM; in experiment [3] it was 50 to 500 nM; in experiment [5], 5 to 20 nM. Moreover, the IC50 in experiment [4] (setting [7]) fell in the range of 50 to 400 nM; in experiment [6] (setting [8]), 50 to 200 nM.

With `CN(C)CC(=O)c1cnc2c(c1)ncn2Cc1ccc2nc(N[C@@H]3CCCC[C@H]3O)sc2c1` [Example 116, 2-(dimethylamino)-1-(3-((2-(((1R,2R)-2-hydroxycyclohexyl)amino)benzo[d]thiazol-6-yl)methyl)-3H-imidazo[4,5-b]pyridine-6-yl)ethanone acetate salt], the Kd in experiment [1] (competition binding) was in the range of 200 to 1000 nM; in experiment [2] (competition binding) it was 100 to 500 nM; in experiment [3] (competition binding), 50 to 500 nM; in experiment [5] (competition binding), 5 to 20 nM. Besides, the 50% inhibitory concentration (IC50) in experiment [4] (M-NFS-60 cell proliferation) was > 1500 nM; in experiment [6] (setting [9]) it was 50 to 200 nM.

Take `OCCOc1ccn2c(Cc3ccc4nc(N[C@@H]5CCCC[C@H]5O)sc4c3)cnc2c1` [Example 135, (1R,2R)-2-((6-((7-(2-hydroxyethoxy)imidazo[1,2-a]pyridin-3-yl)methyl)benzo[d]thiazol-2-yl)amino)cyclohexanol]: the equilibrium dissociation constant (Kd) in experiment [1] (competition binding) was > 5000 nM; in experiment [2] (competition binding), 500 to 2000 nM; in experiment [3] (competition binding) it was 500 to 2000 nM; in experiment [5] (competition binding), 5 to 20 nM. The figures for the half-inhibitory concentration (IC50) in experiment [4] (M-NFS-60 cell proliferation) and in experiment [6] (setting [9]) were 50 to 400 nM and 50 to 200 nM, respectively.
